SMILES strings stand for the structures.

This is an account of results in patent publication US9561233B2, “Use of ibogaine for the treatment of pain” (DemeRX, Inc., priority 2014, dated 2017).

One data set deals with pain in patients. As to the kind of experiment: human clinical studies of ibogaine dosing, alleviation of pain. Format: in vivo. The following applies: lower dosing of ibogaine (lower end of prior-art range 0.01 to 1000 mg/kg body weight). As to the method:
While ibogaine has been disclosed for treatment of substance addiction, its use in humans is complicated by the fact that the ranges in the prior art are exceptionally broad (0.01 to 1000 mg/kg body weight).

A further data set concerns QT interval. Nature of the data set: QT interval of patients treated with ibogaine. It is filed as in vivo, human. To be noted: higher dosing unacceptable. The source says: A prolonged QT interval is a marker of potential Torsades de Pointes, a serious arrhythmia that can result in death.
As used herein, the term “QT interval” refers to the measure of the time between the start of the Q wave and the end of the T wave in the electrical cycle of the heart. Prolongation of the QT interval refers to an increase in the QT interval.

For `CCC1CC2CC3c4[nH]c5ccc(OC)cc5c4CCN(C2)C13` (centres unmarked) [ibogaine], the “impact on the alleviation of pain in patients” value in the data set with pain in patients is on record as “minimal impact”. Also, the “prolongation of the treated patient's QT interval” value in the data set on QT interval is listed as “dose dependent prolongation”.
